Laboratory results taken from patent US20090137549A1, “Novel compounds useful for the treatment of degenerative & inflamatory diseases” (priority 2006, published 2009).

Biological target: PDE1A (Homo sapiens, UniProt P54750)
Assay: PDE1A dose response, Cyclic Nucleotide Phosphodiesterase Assay Kit from Biomol (colorimetric)
Format: biochemical
Settings: purified PDE1A enzyme, 100 μM cAMP
Outline: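 Purified PDE1A hydrolysed 100 μM cAMP with 5′-nucleotidase in Tris 20 mM pH 7.4 with calmodulin, Ca2+, Mg2+, 45 min at 37° C. Released phosphate read by malachite-green absorbance at 615 nm. Duplicate 8-point 1/3 dilutions from 20 μM, 1% DMSO; 10 μM vardenafil defined 100% inhibition.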

SMILES | IC50
COc1cccc(C(=O)N2CCCC(c3nc4c(cnn4-c4ccccc4)c(=O)[nH]3)C2)c1 (stereo not shown) [Example 68, 6-(1-(3-methoxybenzoyl)piperidin-3-yl)-1-phenyl-1H-pyrazolo[3,4-d]pyrimidin-4(5H)-one] | 0.101 to 0.5 µM
O=C(NC1CC1)N1CC(c2nc3c(cnn3C3CCCCC3)c(=O)[nH]2)C1 [Example 69, 3-(1-cyclohexyl-4-oxo-4,5-dihydro-1H-pyrazolo[3,4-d]pyrimidin-6-yl)-N-cyclopropylazetidine-1-carboxamide] | 0.101 to 0.5 µM
COc1ccc(S(=O)(=O)N2CCCC(c3nc4c(c(C)nn4C4CCC4)c(=O)[nH]3)C2)cc1 (stereo not shown) [Example 70, 1-cyclobutyl-6-(1-(4-methoxyphenylsulfonyl)piperidin-3-yl)-3-methyl-1H-pyrazolo[3,4-d]pyrimidin-4(5H)-one] | 0.101 to 0.5 µM
COc1cccc(C(=O)N2CCCC(c3nc4c(c(C)nn4C4CCCCC4)c(=O)[nH]3)C2)c1 (stereo not shown) [Example 71, 1-cyclohexyl-6-(1-(3-methoxybenzoyl)piperidin-3-yl)-3-methyl-1H-pyrazolo[3,4-d]pyrimidin-4(5H)-one] | 0.101 to 0.5 µM
Cc1nn(C2CCCCC2)c2nc(C3CN(C(=O)c4ccccc4)C3)[nH]c(=O)c12 [Example 72, 6-(1-benzoylazetidin-3-yl)-1-cyclohexyl-3-methyl-1H-pyrazolo[3,4-d]pyrimidin-4(5H)-one] | 0.101 to 0.5 µM
COC(=O)c1cccc(C(=O)N2CCCC(c3nc4c(c(C)nn4C4CCCCC4)c(=O)[nH]3)C2)c1 (stereo not shown) [Example 73, methyl 3-(3-(1-cyclohexyl-3-methyl-4-oxo-4,5-dihydro-1H-pyrazolo[3,4-d]pyrimidin-6-yl)piperidine-1-carbonyl)benzaate] | 0.101 to 0.5 µM
Cn1cncc1CNC(=O)N1CC(c2nc3c(cnn3C3CCCCC3)c(=O)[nH]2)C1 [Example 74, 3-(1-cyclohexyl-4-oxo-4,5-dihydro-1H-pyrazolo[3,4-d]pyrimidin-6-yl)-N-((1-methyl-1H-imidazol-5-yl)methyl)azetidine-1-carboxamide] | 0.101 to 0.5 µM
COc1ccc(S(=O)(=O)N2CCCC(c3nc4c(c(C)nn4-c4ccccc4)c(=O)[nH]3)C2)cc1 (stereo not shown) [Example 75, 6-(1-(4-methoxyphenylsulfonyl)piperidin-3-yl)-3-methyl-1-phenyl-1H-pyrazolo[3,4-d]pyrimidin-4(5H)-one] | 0.101 to 0.5 µM
O=C(c1ccc2c(c1)OCO2)N1CCCC(c2nc3c(cnn3C3CCCCC3)c(=O)[nH]2)C1 (stereo not shown) [Example 76, 6-(1-(benzo[d][1,3]dioxole-5-carbonyl)piperidin-3-yl)-1-cyclohexyl-1H-pyrazolo[3,4-d]pyrimidin-4(5H)-one] | 0.101 to 0.5 µM
COc1ccc(C(=O)N2CCCC(c3nc4c(c(C)nn4C4CCCCC4)c(=O)[nH]3)C2)cc1 (stereo not shown) [Example 77, 1-cyclohexyl-6-(1-(4-methoxybenzoyl)piperidin-3-yl)-3-methyl-1H-pyrazolo[3,4-d]pyrimidin-4(5H)-one] | 0.101 to 0.5 µM
COc1cccc(C(=O)N2CCCC(c3nc4c(c(C)nn4C4CCC4)c(=O)[nH]3)C2)c1 (stereo not shown) [Example 78, 1-cyclobutyl-6-(1-(3-methoxybenzoyl)piperidin-3-yl)-3-methyl-1H-pyrazolo[3,4-d]pyrimidin-4(5H)-one] | 0.501 to 1 µM
COc1cccc(S(=O)(=O)N2CCCC(c3nc4c(cnn4C4CCCCC4)c(=O)[nH]3)C2)c1 (stereo not shown) [Example 79, 1-cyclohexyl-6-(1-(3-methoxyphenylsulfonyl)piperidin-3-yl)-1H-pyrazolo[3,4-d]pyrimidin-4(5H)-one] | 0.501 to 1 µM
Cc1nn(-c2ccccc2)c2nc(C3CCCN(C(=O)c4ccc(N(C)C)cc4)C3)[nH]c(=O)c12 (stereo not shown) [Example 80, 6-(1-(4-(dimethylamino)benzoyl)piperidin-3-yl)-3-methyl-1-phenyl-1H-pyrazolo[3,4-d]pyrimidin-4(5H)-one] | 0.501 to 1 µM
COc1cccc(C(=O)N2CCCC(c3nc4c(c(C)nn4-c4ccccc4)c(=O)[nH]3)C2)c1 (stereo not shown) [Example 81, 6-(1-(3-methoxybenzoyl)piperidin-3-yl)-3-methyl-1-phenyl-1H-pyrazolo[3,4-d]pyrimidin-4(5H)-one] | 0.501 to 1 µM
COc1ccccc1C(=O)N1CCCC(c2nc3c(c(C)nn3C3CCC3)c(=O)[nH]2)C1 (stereo not shown) [Example 82, 1-cyclobutyl-6-(1-(2-methoxybenzoyl)piperidin-3-yl)-3-methyl-1H-pyrazolo[3,4-d]pyrimidin-4(5H)-one] | 0.501 to 1 µM

Other lines, results leading:

IC50 | SMILES
0.501 to 1 µM | O=C(N1CCCCC1)N1CC(c2nc3c(cnn3C3CCCCC3)c(=O)[nH]2)C1 [Example 83, 1-cyclohexyl-6-(1-(piperidine-1-carbonyl)azetidin-3-yl)-1H-pyrazolo[3,4-d]pyrimidin-4(5H)-one]
0.501 to 1 µM | O=C(NCCN1CCCC1)N1CC(c2nc3c(cnn3C3CCCCC3)c(=O)[nH]2)C1 [Example 84, 3-(1-cyclohexyl-4-oxo-4,5-dihydro-1H-pyrazolo[3,4-d]pyrimidin-6-yl)-N-(2-(pyrrolidin-1-yl)ethyl)azetidine-1-carboxamide]
0.501 to 1 µM | Cc1nn(C2CCCCC2)c2nc(C3CN(C(=O)Cc4ccccc4)C3)[nH]c(=O)c12 [Example 85, 1-cyclohexyl-3-methyl-6-(1-(2-phenylacetoyl)azetidin-3-yl)-1H-pyrazolo[3,4-d]pyrimidin-4(5H)-one]
0.501 to 1 µM | Cc1ccc(S(=O)(=O)N2CCCC(c3nc4c(c(C)nn4C4CCCCC4)c(=O)[nH]3)C2)cc1 (stereo not shown) [Example 86, 1-cyclohexyl-3-methyl-6-(1-(p-tolylsulfonyl)piperidin-3-yl)-1H-pyrazolo[3,4-d]pyrimidin-4(5H)-one]
0.501 to 1 µM | Cc1ccccc1C(=O)N1CCCC(c2nc3c(c(C)nn3C3CCCCC3)c(=O)[nH]2)C1 (stereo not shown) [Example 87, 1-cyclohexyl-3-methyl-6-(1-(2-methylbenzoyl)piperidin-3-yl)-1H-pyrazolo[3,4-d]pyrimidin-4(5H)-one]
0.501 to 1 µM | O=C(NCCCN1CCOCC1)N1CC(c2nc3c(cnn3C3CCCCC3)c(=O)[nH]2)C1 [Example 88, 3-(1-cyclohexyl-4-oxo-4,5-dihydro-1H-pyrazolo[3,4-d]pyrimidin-6-yl)-N-(3-morpholinopropyl)azetidine-1-carboxamide]
0.501 to 1 µM | Cc1nn(C2CCCCC2)c2nc(C3CCCN(C(=O)c4ccccc4)C3)[nH]c(=O)c12 (stereo not shown) [Example 89, 6-(1-benzoylpiperidin-3-yl)-1-cyclohexyl-3-methyl-1H-pyrazolo[3,4-d]pyrimidin-4(5H)-one]
0.501 to 1 µM | COc1ccccc1C(=O)N1CCCC(c2nc3c(c(C)nn3-c3ccccc3)c(=O)[nH]2)C1 (stereo not shown) [Example 90, 6-(1-(2-methoxybenzoyl)piperidin-3-yl)-3-methyl-1-phenyl-1H-pyrazolo[3,4-d]pyrimidin-4(5H)-one]
0.501 to 1 µM | Cc1nn(C2CCCCC2)c2nc(C3CCCN(C(=O)c4ccccc4Cl)C3)[nH]c(=O)c12 (stereo not shown) [Example 91, 6-(1-(2-chlorobenzoyl)piperidin-3-yl)-1-cyclohexyl-3-methyl-1H-pyrazolo[3,4-d]pyrimidin-4(5H)-one]
0.501 to 1 µM | Cc1nn(C2CCCCC2)c2nc(C3CCCN(C(=O)c4ccccc4F)C3)[nH]c(=O)c12 (stereo not shown) [Example 92, 1-cyclohexyl-6-(1-(2-fluorobenzoyl)piperidin-3-yl)-3-methyl-1H-pyrazolo[3,4-d]pyrimidin-4(5H)-one]
0.501 to 1 µM | COc1ccccc1C(=O)N1CC(c2nc3c(c(C)nn3C3CCCCC3)c(=O)[nH]2)C1 [Example 93, 1-cyclohexyl-6-(1-(2-methoxybenzoyl)azetidin-3-yl)-3-methyl-1H-pyrazolo[3,4-d]pyrimidin-4(5H)-one]
0.501 to 1 µM | O=C(N1CCOCC1)N1CC(c2nc3c(cnn3C3CCCCC3)c(=O)[nH]2)C1 [Example 94, 1-cyclohexyl-6-(1-(morpholine-4-carbonyl)azetidin-3-yl)-1H-pyrazolo[3,4-d]pyrimidin-4(5H)-one]
0.501 to 1 µM | Cc1nn(C2CCCCC2)c2nc(C3CCCN(C(=O)c4cccn4C)C3)[nH]c(=O)c12 (stereo not shown) [Example 95, 1-cyclohexyl-3-methyl-6-(1-(1-methyl-1H-pyrrole-2-carbonyl)piperidin-3-yl)-1H-pyrazolo[3,4-d]pyrimidin-4(5H)-one]
0.501 to 1 µM | Cc1nn(C2CCCCC2)c2nc(C3CCCN(C(=O)c4ccc(C(F)(F)F)cc4)C3)[nH]c(=O)c12 (stereo not shown) [Example 96, 1-cyclohexyl-3-methyl-6-(1-(4-(trifluoromethyl)benzoyl)piperidin-3-yl)-1H-pyrazolo[3,4-d]pyrimidin-4(5H)-one]
1 to 1.5 µM | Cc1nn(C2CCCCC2)c2nc(C3CCCN(C(=O)c4ccsc4)C3)[nH]c(=O)c12 (stereo not shown) [Example 97, 1-cyclohexyl-3-methyl-6-(1-(thiophene-3-carbonyl)piperidin-3-yl)-1H-pyrazolo[3,4-d]pyrimidin-4(5H)-one]
1 to 1.5 µM | Cc1nn(C2CCCCC2)c2nc(C3CCCN(S(=O)(=O)c4cn(C)cn4)C3)[nH]c(=O)c12 (stereo not shown) [Example 98, 1-cyclohexyl-3-methyl-6-(1-(1-methyl-1H-imidazol-4-ylsulfonyl)piperidin-3-yl)-1H-pyrazolo[3,4-d]pyrimidin-4(5H)-one]
1 to 1.5 µM | COc1ccccc1NC(=O)N1CCCC(c2nc3c(c(C)nn3C3CCCCC3)c(=O)[nH]2)C1 (stereo not shown) [Example 99, 3-(1-cyclohexyl-3-methyl-4-oxo-4,5-dihydro-1H-pyrazolo[3,4-d]pyrimidin-6-yl)-N-(2-methoxyphenyl)piperidine-1-carboxamide]
1 to 1.5 µM | Cc1nn(C2CCCCC2)c2nc(C3CCCN(S(=O)(=O)c4ccccc4Cl)C3)[nH]c(=O)c12 (stereo not shown) [Example 100, 6-(1-(2-chlorophenylsulfonyl)piperidin-3-yl)-1-cyclohexyl-3-methyl-1H-pyrazolo[3,4-d]pyrimidin-4(5H)-one]
1 to 1.5 µM | Cc1nn(C2CCCCC2)c2nc(C3CCCN(C(=O)c4cccs4)C3)[nH]c(=O)c12 (stereo not shown) [Example 101, 1-cyclohexyl-3-methyl-6-(1-(thiophene-2-carbonyl)piperidin-3-yl)-1H-pyrazolo[3,4-d]pyrimidin-4(5H)-one]
